Measured values published in patent publication US11427548B2 (Arvinas Operations, Inc., priority 2015, dated 2022).
Like-named read-outs stand apart in the source and are kept apart here.

Key:
Androgen Receptor [1] = biological target: T1, Androgen Receptor (Homo sapiens, UniProt P10275+P40337, T878A); experiment: Androgen Receptor ELISA assay (PathScan AR ELISA) in LNCaP cells: AR degradation, Dmax and DC50; assay type: cell-based; conditions: for DC50: concentration that caused 50% Androgen Receptor degradation
T1 construct: Compounds have been evaluated in this assay in LNCaP and/or VCaP cells utilizing similar protocols; endogenous in cells; host or cells: LNCaP cells
T1 sequence (P10275 whole entry T878A): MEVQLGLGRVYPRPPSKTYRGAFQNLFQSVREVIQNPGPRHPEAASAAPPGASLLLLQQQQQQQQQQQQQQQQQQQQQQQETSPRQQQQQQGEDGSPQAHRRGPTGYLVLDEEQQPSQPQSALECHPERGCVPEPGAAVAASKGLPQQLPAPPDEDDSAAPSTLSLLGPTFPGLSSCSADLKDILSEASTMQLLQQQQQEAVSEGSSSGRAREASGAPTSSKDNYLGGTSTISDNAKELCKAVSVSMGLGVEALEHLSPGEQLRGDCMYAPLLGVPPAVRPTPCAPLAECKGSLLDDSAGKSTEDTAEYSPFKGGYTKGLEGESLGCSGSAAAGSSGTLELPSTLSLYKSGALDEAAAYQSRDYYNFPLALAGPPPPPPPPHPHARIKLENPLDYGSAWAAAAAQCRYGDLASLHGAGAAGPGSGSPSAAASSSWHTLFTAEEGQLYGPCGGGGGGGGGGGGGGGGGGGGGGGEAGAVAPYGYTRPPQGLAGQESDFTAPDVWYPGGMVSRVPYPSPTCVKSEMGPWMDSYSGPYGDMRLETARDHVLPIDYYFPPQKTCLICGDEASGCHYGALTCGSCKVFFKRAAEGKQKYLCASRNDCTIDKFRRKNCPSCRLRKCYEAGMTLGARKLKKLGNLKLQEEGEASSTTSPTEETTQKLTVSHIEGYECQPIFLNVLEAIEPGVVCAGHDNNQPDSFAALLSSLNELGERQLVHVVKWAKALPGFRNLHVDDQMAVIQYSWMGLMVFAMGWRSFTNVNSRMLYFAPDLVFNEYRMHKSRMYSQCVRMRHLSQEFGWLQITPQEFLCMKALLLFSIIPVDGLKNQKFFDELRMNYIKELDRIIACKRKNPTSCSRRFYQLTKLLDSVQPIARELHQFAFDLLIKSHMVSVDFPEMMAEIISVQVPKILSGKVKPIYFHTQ
T1 sequence (P40337 whole entry): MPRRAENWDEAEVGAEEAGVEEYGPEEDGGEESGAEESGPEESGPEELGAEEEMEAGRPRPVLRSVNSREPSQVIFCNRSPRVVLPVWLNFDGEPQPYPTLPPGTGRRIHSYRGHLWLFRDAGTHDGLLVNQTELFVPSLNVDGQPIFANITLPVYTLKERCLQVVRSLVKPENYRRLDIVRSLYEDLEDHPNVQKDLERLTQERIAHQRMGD
T1 sequence (Q15369 whole entry partner): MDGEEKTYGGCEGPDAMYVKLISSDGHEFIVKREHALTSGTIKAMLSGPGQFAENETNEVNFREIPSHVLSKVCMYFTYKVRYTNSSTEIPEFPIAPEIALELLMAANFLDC
T1 sequence (Q15370 whole entry partner): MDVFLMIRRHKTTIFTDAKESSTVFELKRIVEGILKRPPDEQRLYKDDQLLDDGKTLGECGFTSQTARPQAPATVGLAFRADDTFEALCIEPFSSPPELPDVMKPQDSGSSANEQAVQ

Androgen Receptor [2] = biological target: T2, Androgen Receptor (Homo sapiens, UniProt P10275); experiment: Androgen Receptor ELISA assay (PathScan AR ELISA) in VCaP cells: AR degradation, Dmax and DC50; assay type: cell-based
T2 construct: endogenous in cells; host or cells: VCaP cells
T2 sequence (P10275 1-920): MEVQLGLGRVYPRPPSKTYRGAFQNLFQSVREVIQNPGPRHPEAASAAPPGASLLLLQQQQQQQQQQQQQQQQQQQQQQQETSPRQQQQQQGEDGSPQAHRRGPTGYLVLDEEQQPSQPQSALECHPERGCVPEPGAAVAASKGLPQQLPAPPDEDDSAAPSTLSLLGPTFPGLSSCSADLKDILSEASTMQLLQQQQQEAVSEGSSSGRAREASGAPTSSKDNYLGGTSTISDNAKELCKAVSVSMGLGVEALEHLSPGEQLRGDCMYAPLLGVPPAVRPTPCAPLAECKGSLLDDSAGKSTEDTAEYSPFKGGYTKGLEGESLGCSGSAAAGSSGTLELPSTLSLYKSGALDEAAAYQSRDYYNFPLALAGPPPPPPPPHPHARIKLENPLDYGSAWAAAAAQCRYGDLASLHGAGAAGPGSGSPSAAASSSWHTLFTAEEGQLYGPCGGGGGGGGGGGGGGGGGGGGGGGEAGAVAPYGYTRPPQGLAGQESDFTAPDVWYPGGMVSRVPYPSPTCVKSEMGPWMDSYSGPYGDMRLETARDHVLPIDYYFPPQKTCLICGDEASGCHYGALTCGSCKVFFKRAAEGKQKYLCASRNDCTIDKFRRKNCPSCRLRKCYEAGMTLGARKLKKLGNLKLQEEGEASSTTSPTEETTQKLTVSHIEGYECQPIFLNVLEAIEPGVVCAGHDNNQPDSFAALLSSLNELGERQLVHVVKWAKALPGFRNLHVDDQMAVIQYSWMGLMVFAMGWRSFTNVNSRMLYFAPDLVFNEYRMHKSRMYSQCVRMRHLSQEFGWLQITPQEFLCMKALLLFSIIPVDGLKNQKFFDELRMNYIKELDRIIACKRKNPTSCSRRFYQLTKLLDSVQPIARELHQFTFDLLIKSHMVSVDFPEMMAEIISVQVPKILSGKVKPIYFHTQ
Summary of the method: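 VCaP cells in phenol red-free RPMI with 5% charcoal-stripped FBS were grown at least 3 days, then given compound as 7 half-log doses in 0.1% DMSO with 0.1 nM R1881 for 24 h. Lysates went into a sandwich AR ELISA with TMB read at 450 nm.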

[3] = highest percentage of Androgen Receptor degradation observed
[4] = read-out: VCaP DC50; concentration that caused 50% Androgen Receptor degradation, VCaP cells
[5] = highest percentage of Androgen Receptor degradation
[6] = read-out: VCaP DC50; VCaP cells; concentration that caused 50% Androgen Receptor degradation

| SMILES | DC50 (Androgen Receptor [1]) [nM] | Dmax (Androgen Receptor [1]; [3]) [%] | Dmax (Androgen Receptor [2]; VCaP, read-out: VCaP Dmax (%)) [%] | DC50 (Androgen Receptor [2]; [4]) [nM] | LNCaP Dmax (%) (Androgen Receptor [1]; [3]) | DC50 (Androgen Receptor [2]; concentration that caused 50% Androgen Receptor degradation, VCaP cells; read-out: VCaP DC50) [nM] | VCaP Dmax (%) (Androgen Receptor [2]; highest percentage of Androgen Receptor degradation observed, VCaP cells) | Dmax (Androgen Receptor [1]; [5]) [%] | DC50 (Androgen Receptor [2]; [6]) [nM] |
| --- | --- | --- | --- | --- | --- | --- | --- | --- | --- |
| Cc1ncsc1-c1ccc(CNC(=O)[C@@H]2C[C@@H](O)CN2C(=O)[C@@H](NC(=O)COCCCOc2ccc(-c3ccc(N4C(=S)N(c5ccc(C#N)c(C(F)(F)F)c5)C(=O)C4(C)C)cc3)cc2)C(C)(C)C)cc1 [Example 77] | < 50 | > 71 | 51 to 70 | < 50 | – | – | – | – | – |
| Cc1ncsc1-c1ccc(CNC(=O)[C@@H]2C[C@@H](O)CN2C(=O)[C@@H](NC(=O)COCCOc2ccc(-c3ccc(N4C(=S)N(c5ccc(C#N)c(C(F)(F)F)c5)C(=O)C4(C)C)cc3)cc2)C(C)(C)C)cc1 [Example 78] | < 50 | > 71 | 51 to 70 | < 50 | – | – | – | – | – |
| Cc1ncsc1-c1ccc([C@H](C)NC(=O)[C@@H]2C[C@@H](O)CN2C(=O)[C@@H](NC(=O)COCCOCCOc2ccc(-c3ccc(N4C(=S)N(c5ccc(C#N)c(C(F)(F)F)c5)C(=O)C4(C)C)cc3F)cc2)C(C)(C)C)cc1 [Example 79, (2S,4R)-l-[(2S)-2-[2-(2-{2-[4-(4-{3-[4-cyano-3-(trifluoromethyl)phenyl]-5,5-dimethyl-4-oxo-2-sulfanylideneimidazolidin-1-yl}-2-fluorophenyl)phenoxy]ethoxy}ethoxy)acelamido]-3,3-dimethylbutanoyl]-4-hydroxy-N-[(1S)-l-[4-(4-methyl-l,3-thiazol-5-yl)phenyl]ethyl]pyrrolidine-2-carboxamide] | < 50 | – | – | – | ++++ (71% ≤ Dmax) | < 50 | +++ (51% ≤ Dmax ≤ 70%) | – | – |
| Cc1ncsc1-c1ccc(CNC(=O)[C@@H]2C[C@@H](O)CN2C(=O)[C@@H](NC(=O)COCCCCOCCN2CCC(c3ccc(N4C(=S)N(c5ccc(C#N)c(C(F)(F)F)c5)C(=O)C4(C)C)cc3)CC2)C(C)(C)C)cc1 [Example 81, (2S,4R)-1-((S)-2-(2-(4-(2-(4-(4-(3-(4-cyano-3-(trifluoromethyl)phenyl)-5,5-dimethyl-4-oxo-2-thioxoimidazolidin-1-yl)phenyl)piperidin-1-yl)ethoxy)butoxy)acetamido)-3,3-dimethylbutanoyl)-4-hydroxy-N-(4-(4-methylthiazol-5-yl)benzyl)pyrrolidine-2-carboxamide] | > 501 | 51 to 70 | < 25 | 51 to 500 | – | – | – | – | – |
| Cc1ncsc1-c1ccc(CNC(=O)[C@@H]2C[C@@H](O)CN2C(=O)[C@@H](NC(=O)COCCCOCCCOc2ccc(N3C(=S)N(c4ccc(C#N)c(C(F)(F)F)c4)C(=O)C3(C)C)cc2)C(C)(C)C)cc1 [Example 238] | 51 to 500 | – | < 25 | – | – | – | – | 51 to 70 | – |
| Cc1ncsc1-c1ccc(CNC(=O)[C@@H]2C[C@H](O)CN2C(=O)[C@@H](NC(=O)COCCCOCCCCCOc2ccc(N3C(=S)N(c4ccc(C#N)c(C(F)(F)F)c4)C(=O)C3(C)C)cc2)C(C)(C)C)cc1 [Example 242] | > 501 | – | 26 to 50 | – | – | – | – | 26 to 50 | > 501 |
| Cc1ncsc1-c1ccc(CNC(=O)[C@@H]2C[C@@H](O)CN2C(=O)[C@@H](NC(=O)COCCOCCCCCOc2ccc(N3C(=S)N(c4ccc(C#N)c(C(F)(F)F)c4)C(=O)C3(C)C)cc2)C(C)(C)C)cc1 [Example 247] | < 50 | – | > 71 | – | – | – | – | > 71 | < 50 |
| Cc1ncsc1-c1ccc(CNC(=O)[C@@H]2C[C@@H](O)CN2C(=O)[C@@H](NC(=O)CCCOCCOc2ccc(-c3ccc(N4C(=S)N(c5ccc(C#N)c(C(F)(F)F)c5)C(=O)C4(C)C)cc3)cc2)C(C)(C)C)cc1 [Example 260] | 51 to 500 | – | 26 to 50 | – | – | – | – | > 71 | < 50 |
| Cc1ncsc1-c1ccc(CNC(=O)[C@@H]2C[C@@H](O)CN2C(=O)[C@@H](NC(=O)c2cccc(OCCCCOc3ccc(N4C(=S)N(c5ccc(C#N)c(C(F)(F)F)c5)C(=O)C4(C)C)cc3)c2)C(C)(C)C)cc1 [Example 278] | 51 to 500 | – | 51 to 70 | – | – | – | – | > 71 | < 50 |
| Cc1ncsc1-c1ccc(CNC(=O)[C@@H]2C[C@@H](O)CN2C(=O)[C@@H](NC(=O)COCCCOCCOc2cccc(-c3ccc(N4C(=S)N(c5ccc(C#N)c(C(F)(F)F)c5)C(=O)C4(C)C)cc3)c2)C(C)(C)C)cc1 [Example 288] | < 50 | – | 26 to 50 | – | – | – | – | > 71 | < 50 |
| Cc1ncsc1-c1ccc(CNC(=O)[C@@H]2C[C@@H](O)CN2C(=O)[C@@H](NC(=O)CCc2ccc(OCCCOc3ccc(N4C(=S)N(c5ccc(C#N)c(C(F)(F)F)c5)C(=O)C4(C)C)cc3)cc2)C(C)(C)C)cc1 [Example 292] | 51 to 500 | – | 26 to 50 | – | – | – | – | 51 to 70 | 51 to 500 |
| Cc1ncsc1-c1ccc(CNC(=O)[C@@H]2C[C@@H](O)CN2C(=O)[C@@H](NC(=O)COCCCCOC2CCN(C(=O)c3ccc(N4C(=S)N(c5ccc(C#N)c(C(F)(F)F)c5)C(=O)C4(C)C)cc3)CC2)C(C)(C)C)cc1 [Example 293] | 51 to 500 | – | < 25 | – | – | – | – | 51 to 70 | – |
| Cc1ncsc1-c1ccc(CNC(=O)[C@@H]2C[C@@H](O)CN2C(=O)[C@@H](NC(=O)COCCCCCOC2CCN(C(=O)c3ccc(N4C(=S)N(c5ccc(C#N)c(C(F)(F)F)c5)C(=O)C4(C)C)cc3)CC2)C(C)(C)C)cc1 [Example 294] | 51 to 500 | – | 26 to 50 | – | – | – | – | 26 to 50 | 51 to 500 |
| Cc1ncsc1-c1ccc(CNC(=O)[C@@H]2C[C@@H](O)CN2C(=O)[C@@H](NC(=O)COCCCCCOCCCOc2ccc(N3C(=S)N(c4ccc(C#N)c(C(F)(F)F)c4)C(=O)C3(C)C)cc2)C(C)(C)C)cc1 [Example 295] | < 50 | – | 26 to 50 | – | – | – | – | > 71 | < 50 |
| Cc1ncsc1-c1ccc(CNC(=O)[C@@H]2C[C@@H](O)CN2C(=O)[C@@H](NC(=O)COCCOc2cccc(CCCOc3ccc(N4C(=S)N(c5ccc(C#N)c(C(F)(F)F)c5)C(=O)C4(C)C)cc3)c2)C(C)(C)C)cc1 [Example 296] | 51 to 500 | – | 26 to 50 | – | – | – | – | > 71 | < 50 |
| Cc1ncsc1-c1ccc(CNC(=O)[C@@H]2C[C@@H](O)CC2C(=O)[C@H](C(C)C)N2Cc3ccccc3C2=O)c(OCCOC2CCCC[C@@H]2OCCOc2ccc(N3C(=S)N(c4ccc(C#N)c(C(F)(F)F)c4)C(=O)C3(C)C)cc2)c1 (stereo partly drawn) [Example 297] | > 501 | – | 26 to 50 | – | – | – | – | 26 to 50 | – |
| Cc1ncsc1-c1ccc(CNC(=O)[C@@H]2C[C@@H](O)CN2C(=O)[C@@H](NC(=O)Cc2cccc(OCCCOCCOc3ccc(N4C(=S)N(c5ccc(C#N)c(C(F)(F)F)c5)C(=O)C4(C)C)cc3)c2)C(C)(C)C)cc1 [Example 298] | 51 to 500 | – | 26 to 50 | – | – | – | – | 51 to 70 | 51 to 500 |
| Cc1ncsc1-c1ccc(CNC(=O)[C@@H]2C[C@@H](O)CN2C(=O)[C@H](C(C)C)N2Cc3c(CCCOCCOc4ccc(N5C(=S)N(c6ccc(C#N)c(C(F)(F)F)c6)C(=O)C5(C)C)cc4)cccc3C2=O)cc1 [Example 299] | 51 to 500 | – | 26 to 50 | – | – | – | – | > 71 | – |
| Cc1ncsc1-c1ccc(CNC(=O)[C@@H]2C[C@@H](O)CN2C(=O)[C@@H](NC(=O)CCCOCCOCCCOc2ccc(N3C(=S)N(c4ccc(C#N)c(C(F)(F)F)c4)C(=O)C3(C)C)cc2)C(C)(C)C)cc1 [Example 300] | < 50 | – | 51 to 70 | – | – | – | – | 51 to 70 | < 50 |
